Measurements as given in patent EP0417637A2, “Use of dopamine autoreceptor agonists in the treatment of drug dependency” (BOEHRINGER INGELHEIM KG, priority 1989, dated 1991).
Where two headings read alike, the source gives them in different places.

Assays:
[1] = Extensive animal tests on abuse potential (no method given); type: in vivo
Text: Das ist für die Therapie von großer Bedeutung.

[2] = test system: Affen; conditions: in vivo
[3] = test system: drogenabhängigen Affen; assay: Test 3: effect of BHT 920 on cocaine or alfentanil self-administration in drug-dependent monkeys; type: in vivo
Procedure: Nach Durchführung des Tests Nr. […] In weiteren analogen Versuchen (siehe beiliegende graphische Darstellungen für Affe 1, Affe 2 und Affe 3) wurde den drogenabhängigen Affen BHT 920 in 2 Dosen (0,01 und 0,1 mg/kg/Injektion) gleichzeitig zu steigenden Dosen von Kokain (2 Tiere) beziehungsweise Alfentanil (1 Tier) angeboten. […] Auch sehr hohe Dosen der suchterzeugenden Droge konnten diese Wirkung von BHT 920 nicht aufheben. Aufgrund von Verhaltensbeobachtungen während der oben beschriebenen Tests kann gesagt werden, daß die hemmende Wirkung von BHT 920 nicht durch eine allgemeine Sedation erklärt werden kann. Daraus kann geschlossen werden, daß die Verabreichung von BHT 920 das Bedürfnis nach Kokain mindert und die psychische Abhängigkeit von der Droge durchbricht.

[4] = test system: Affen; assay: Test 1: intravenous self-administration in monkeys experienced with sodium methohexital and saline; conditions: for Anzahl der Selbstinjektionen: average values, 3 monkeys, sessions of 130 min
[5] = test system: Affen; assay: Test 2: intravenous self-administration in monkeys receiving cocaine infusions (analogous to Test 1); conditions: BHT 920 0,001, 0,003 and 0,01 mg/kg/Injektion or cocaine; 3 monkeys, each dose available for 25 min or 20 infusions

| SMILES | Mißbrauchspotential [1] | Reaktionshäufigkeit [2] | Kokain - beziehungsweise Alfentanil - Selbstadministrationsrate ([3]; BHT 920 high dose 0,1 mg/kg/Injektion given together with rising doses of cocaine (2 animals) or alfentanil (1 animal)) | Kokain - beziehungsweise Alfentanil - Selbstadministrationsrate ([3]; BHT 920 lower dose 0,01 mg/kg/Injektion given together with rising doses of cocaine (2 animals) or alfentanil (1 animal)) | durch Kokain verursachte Reaktionshäufigkeit ([3]; session following administration of BHT 920, in 2 of 3 animals, compared with cocaine in Test 2) | Anzahl der Selbstinjektionen ([4]; 0,01 mg BHT 920/kg/Injektion i.v.) | Anzahl der Selbstinjektionen ([4]; 0,05 mg BHT 920/kg/Injektion i.v.) | Anzahl der Selbstinjektionen ([4]; 0,0001 mg BHT 920/kg/Injektion i.v.) | Anzahl der Selbstinjektionen ([4]; 0,001 mg BHT 920/kg/Injektion i.v.) | Reinforcement ([4]; at the doses used) | Anzahl der genommenen Injektionen der Testsubstanz ([4]; four doses, each tested twice in each monkey, compared with saline and methohexital) | Reaktionshäufigkeit [5] |
| --- | --- | --- | --- | --- | --- | --- | --- | --- | --- | --- | --- | --- |
| CCCN[C@H]1CCc2nc(N)sc2C1 [SND 919, (S)-2-Amino-4,5,6,7-tetrahydro-6-n-propylamino-benzothiazol] | kein Mißbrauchspotential |  |  |  |  |  |  |  |  |  |  |  |
| COC(=O)[C@H]1[C@@H](OC(=O)c2ccccc2)C[C@@H]2CC[C@H]1N2C [Kokain] |  | dosenabhängige Erhöhung der Reaktionshäufigkeit |  |  |  |  |  |  |  |  |  |  |
| C=CCN1CCc2nc(N)sc2CC1 [BHT 920, 6-Allyl-2-amino-5,6,7,8-tetrahydro-4H-thiazolo[4,5-d]azepin] | kein Mißbrauchspotential |  | auf Null sinken | deutlichen Abnahme | wesentlich unter der in Test 2 für Kokain beobachtete Reaktionshäufigkeit | 10 | 18 | 21 | 19 | kein Reinforcement | nicht höher als die Anzahl der genommenen Injektionen von Kochsalzlösung | in dem Bereich lag, der auch bei Kochsalzlösung beobachtet wurde |
